# Results from patent publication EP1311486B1, “USES OF THALIPORPHINE OR ITS DERIVATIVES IN TREATMENT OF CARDIAC DISEASES AND PREPARATION OF SAME” (Lotus Pharmaceutical Co., Ltd., priority 2000, dated 2002).
# What was measured:
# AV node conduction = assay: His bundle electrogram of isolated heart, Langendorff perfusion, atrial pacing at 300 ms cycle length; parameters: species or system rats and guinea pigs; conditions: for atrial effective refractory period (AERP): before drug THP 60 ms, quinidine 40 ms; for ventricular effective refractory period (VERP): before drug THP 160 ms, quinidine 180 ms; for AV node effective refractory period (AVNERP): before drug THP 170 ms, quinidine 130 ms; for wenckbach cycle length (WCL): before drug THP 200 ms, quinidine 150 ms
# Description: The investigation conforms to the Guide for the Care and Use of Laboratory Animals published by the US National Institutes of Health (NIH publication No. 85-23, revised 1996). Adult rats and guinea pigs were killed after hepariniation and anesthetization with urethane (1.25 g/kg i.p.). After isolating the heart, the aorta was perfused with 10µM quinidine and THP, respectively, by Langendorff perfusion. A pair of bipolar electrodes connected with silver wire were placed on the tip of the Triangle of Koch to record the His bundle electrogram. In addition, another pair of bipolar electrodes connected with silver wire were placed on the surface of the right ventricle to record T wave. […] The QT interval, conduction time through the sinoatrial (SA interval), the atrioventricular node (AH interval) and His-purkinje system (HV interval) were recorded, respectively, using electrocardiograph. Similarly, the recovery curve of His-purkinje system (i.e. the relationship of H2V2 and V1H2), atrial and ventricular refractory period and AV node refractory period were also recorded in the same manner. 1 and 2.
# The SA, AH, HV intervals and T wave are prolonged in the quinidine-treated heart (FIG. 1). […] In addition, 3, 10 and 30µM THP can prolong the atrial effective refractory period (AERP) from 60 ms to 90, 100 and 120 ms, respectively; the ventricular effective refractory period (VERP) from 160 ms to 160, 170 and 190 ms, respectively; and the AV node effective refractory period (AVNERP) from 170 ms to 170, 200 and 240 ms, respectively. When compared with THP in the same manner, 3,10 and 30µM quinidine can prolong the AERP from 40 ms to 60, 80 and 130 ms; the VERP from 180 ms to 170, 180 and 190 ms; and the AVNERP from 130 ms to 150, 200 and 245 ms, respectively. Further, 3, 10 and 30µM THP can change the wenckbach cycle length (WCL) from 200 ms to 210, 230 and 280 ms, respectively; whereas 3, 10 and 30µM quinidine can change the WCL from 150 ms to 170, 210 and 300 ms, respectively. Both THP and quinidine prolong AERP, VERP and AVNERP, however, only quinidine inhibits conduction in AV node (prolonged AH interval). In contrast, even when the THP concentration raised to 10µM, the conduction in AV node is not inhibited.
# [1] = tested on: transient outward potassium current (Ito); assay: Inhibition of transient outward potassium current; conditions: rats
# Description: Moreover, 3-10µM THP prolongs the action potential duration in the atria or ventricles of both rats and guinea pigs (data not shown).
# plasma LDH = assay: Plasma LDH release at the end of ischemia or ischemia-reperfusion; format: in vivo, rats; conditions: for LDH (U/L) release, Ischemic / LDH (U/L) release, Reperfused: Operated
# Description: Myocardial ischemia was performed by a temporary tightening of the silk ligature around the left main coronary artery. Reperfusion was achieved by releasing the tension applied to the ligature (operated groups). Sham operated animals underwent all surgical procedures, apart from the fact that the silk, passing around the left coronary artery, was not tied (sham groups). Animals were infused with a bolus of THP (3.5x10^-7, 3.5x10^-6, 3.5x10^-5 g/kg), L-NAME (N^∞-nitro-L-arginine methyl ester; 1x10^-3 g/kg) or vehicle (dimethyl sulfoxide/ NaCl 0.9%, 1:10^3; v/v) from a jugular vein 15 minutes before coronary occlusion. The coronary artery was occluded for 30 minutes or 5 minutes followed by 30 minutes reperfusion and with the animals then divided randomly in the following groups: (1) sham + vehicle; (2) sham + THP (3.5x10^-5g/kg); (3) operated + vehicle; (4) operated + THP (3.5x10^-7 g/kg); (5) operated + THP (3.5x10^-6 g/kg); (6) operated + THP (3.5x10^-5 g/kg); (7) operated + L-NAME (1x10^-3 g/kg) + THP (3.5x10^-5 g/kg). Before and during the ischemia or reperfusion period, heart rate (HR), blood pressure (BP) and ECG changes were recorded. Ventricular ectopic activity was evaluated according to the diagnostic criteria advocated in the Lambeth Convention. The incidence and duration of ventricular tachyarrhythmias, including ventricular tachycardia (VT) and ventricular fibrillation (VF), in surviving animals was determined. The Mann-Whitney rank-sum test was used to analyze the differences in the duration of VT and VF between vehicle and drug treated groups. The BP and HR changes between vehicle and drug treated rats in the arrhythmia study were analyzed by ANOVA (analysis of variance) followed by Bonferroni's test. The difference in the percentage incidence of VT, VF and mortality rate was analyzed with a Chi-square test. Table 2 Effect of THP on ischemia-induced arrhythmias in the in vivo anesthetized rat
# Cellular damage was evaluated by measuring the plasma LDH. Arterial blood samples were drawn from the carotid catheter at the end of ischemia or ischemia-reperfusion, collected in heparinized tubes. The blood was kept at 4°C until it was centrifuged at 2000 xg for 15 minutes. The plasma was recovered and aliquots were used for determination of LDH activity with a commercial kit from Sigma. The deproteinized plasma samples were frozen and kept until analysis. NO was measured by the NO/ozone chemiluminescence technique described in Yanu F. et al., (1997) Clin. Chem. 43:657-662. The difference in plasma NO and LDH were analyzed statistically using unpaired Student's t-test. Table 5 Effects of THP on LDH (U/L) release
# The biochemical indicator of cellular damage (LDH release) is determined in ischemia and the ischemia-reperfusion period. Low LDH activity can be seen in the control group (123.6±20.6 U/L) before occlusion. After the occlusion or occlusion-reperfusion, a large increase of the enzyme is found in the plasma of rats given operated-vehicle (500.5±81.4 U/L and 273.7±29.2 U/L, respectively). However, administration of THP attenuates LDH release with a dose-dependent manner during ischemia or ischemia-reperfusion (Table 5).
# inward sodium current = conditions: Su MJ, et al., Eur. J. Pharmacol., 1994; cited from earlier work
compound,measurement,setting,value
"COc1cc2c(cc1OC)-c1c(O)c(OC)cc3c1C(C2)N(C)CC3 (single isomer, unassigned; (+)) [THP, (+)-Thaliporphine]",atrial effective refractory period (AERP),AV node conduction; 3µM,90 ms
same,ventricular effective refractory period (VERP),AV node conduction; 3µM,160 ms
same,AV node effective refractory period (AVNERP),AV node conduction; 3µM,170 ms
same,wenckbach cycle length (WCL),AV node conduction; 3µM,210 ms
same,AH interval (conduction in AV node),"AV node conduction; 10µM, isolated perfused heart",not inhibited
same,HV interval,"AV node conduction; 10µM, isolated perfused heart",prolonged slightly
same,SA interval,"AV node conduction; 10µM, isolated perfused heart",remains unaffected
same,atrial effective refractory period (AERP),AV node conduction; 10µM,100 ms
same,ventricular effective refractory period (VERP),AV node conduction; 10µM,170 ms
same,AV node effective refractory period (AVNERP),AV node conduction; 10µM,200 ms
same,wenckbach cycle length (WCL),AV node conduction; 10µM,230 ms
same,atrial effective refractory period (AERP),AV node conduction; 30µM,120 ms
same,ventricular effective refractory period (VERP),AV node conduction; 30µM,190 ms
same,AV node effective refractory period (AVNERP),AV node conduction; 30µM,240 ms
same,wenckbach cycle length (WCL),AV node conduction; 30µM,280 ms
same,transient outward potassium current (Ito),[1],markedly inhibit
same,"LDH (U/L) release, Ischemic",plasma LDH; THP 3.5x10^-5 g/kg,132.2±33.2 U/L
same,"LDH (U/L) release, Reperfused",plasma LDH; THP 3.5x10^-5 g/kg,143.8±11.7 U/L
same,"LDH (U/L) release, Ischemic",plasma LDH; THP 3.5x10^-6 g/kg,171.7±56.9 U/L
same,"LDH (U/L) release, Reperfused",plasma LDH; THP 3.5x10^-6 g/kg,219.6±31.0 U/L
same,"LDH (U/L) release, Ischemic",plasma LDH; THP 3.5x10^-7 g/kg,349.5±55.0 U/L
same,"LDH (U/L) release, Reperfused",plasma LDH; THP 3.5x10^-7 g/kg,202.2±30.4 U/L
same,"LDH (U/L) release, Non-ischemic","plasma LDH; Sham-operated, THP 3.5x10^-5 g/kg",92.6±7.5 U/L
same,inward sodium current,inward sodium current,inhibit
